In patent publication US20210299079A1, “MONOMETHYL FUMARATE-CARRIER CONJUGATES AND METHODS OF THEIR USE” (Flagship Pioneering Innovations V, Inc., priority 2018, published 2021):

Columns and labels:
[1] = test system: IL-8; test: Neutrophil Chemokine Production Assay: IL-8; format: cell-based; conditions: human neutrophils, 12 h
Method in brief: (§1)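 Neutrophils were isolated from human blood by Histopaque-1077 separation and RBC lysis, then plated at 2.0×10^5 cells/well in RPMI complete. Cells were stimulated with LPS (10 μL of a 2 μg/mL solution) for 12 h at 37 °C. Supernatant chemokines were measured by Luminex multiplex, averaging three data points from two donors.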

[2] = test system: MIP-1α; test: Neutrophil Chemokine Production Assay: MIP-1α; format: cell-based; conditions: human neutrophils, 12 h
Method in brief: as §1

[3] = test system: TNFα; test: Cytokine Release from Human PBMCs: TNFα; format: cell-based; conditions: LPS, 24 hours, Concentration 100 μM
Description: (§2) Human donor blood (8 mL) was collected in sodium citrate CPT tubes and centrifuged at 1,600×g for 20 minutes at room temperature. Buffy coat containing PBMCs was collected and transferred to a 50 mL conical tube containing 30 mL of RPMI-1640 medium at room temperature (supplemented with penicillin-streptomycin). PBMCs samples were centrifuged at 400×g for 10 minutes at 10° C. The pelleted PBMCs were washed twice in 10 ml of RPMI-1640 medium (supplemented with penicillin-streptomycin), then resuspended in RPMI-1640 medium (supplemented with penicillin-streptomycin, fetal bovine serum, and L-Glutamine). PBMCs were filtered through a 70 micron mesh to remove any cellular debris. […] PBMCs in a 96-well plate were rested for 30 minutes in a 37° C., 5% CO2 incubator, then subsequently treated with 10 μI of indicated compound. After 2 hours 10 μL of LPS (0111:64) 1 mg/mL was added to test wells. After 24 hours of incubation at 37° C., 5% CO2, 100 μL of cell supernatant was collected and transferred to a 96-well plate (non-tissue treated, flat bottom). The plate was centrifuged at 350×g for 5 minutes at room temperature, and then the clear supernatant transferred to a new 96-well plate (non-tissue treated, flat bottom). The remaining cells were tested for viability using CellTiter-Glo® Luminescent Cell Viability Assay (Promega). The supernatant was analyzed for TNFα, IL-6 and IL-1β (kit […] Systems), using Luminex Immunoassay Technology (MAGPIX System).

[4] = test system: MIP-1β; test: Neutrophil Chemokine Production Assay: MIP-1β; format: cell-based; conditions: human neutrophils, 12 h
Method in brief: as §1

[5] = test system: IL-1β; test: Cytokine Release from Human PBMCs: IL-1β; format: cell-based; conditions: LPS, 24 hours, Concentration 100 μM
Description: as §2

[6] = test system: Caco-2 colonocytes; test: Human Caco-2 Barrier Integrity Assay, Study 1; format: cell-based; conditions: Caco-2, + cytokines (TNFα, IFNγ, IL-1β), 48 hours
Description: Caco-2 colonocytes were maintained at 37° C. and 5% CO2 in Dulbecco's Modified Eagle Medium (DMEM) and supplemented with 10% FBS, 1% NEAA, 1% penicillin-streptomycin. At 70-80% confluency, cells were trypsinized and seeded in 0.4 cm^2 transwell collagen I coated membranes with supplemented DMEM in both apical and basolateral compartments. […] After 48 hours, TEER readings were taken again and viability was measured by CellTiter 96® AQueous One Solution Cell Proliferation Assay (Promega).

[7] = test system: IL-6; test: Cytokine Release from Human PBMCs: IL-6; format: cell-based; conditions: LPS, 24 hours, Concentration 100 μM
Description: as §2

[8] = test system: experimental autoimmune encephalomyelitis (EAE); test: In Vivo EAE Model of Multiple Sclerosis; design: species or system C57BL/6J mice
Description: For experimental autoimmune encephalomyelitis (EAE) study, 8- to 11-week-old C57BL/6J mice were anesthetized and subcutaneously injected with […] and […]. Pertussis toxin (200 ng/mouse) was applied i.p. on days 0. Daily clinical evaluation was performed via a 5-point scale, and the clinical progression was observed over 28 days (FIG. 2A). […] At the end of the study, flow cytometry analysis was performed on the spleen (n=8 per group). […] Statistical analysis was performed with GraphPad Prism (GraphPad Software). Unpaired t test was used to assess significance between the control (Vehicle) and each treatment group. For experimental autoimmune encephalomyelitis (EAE) studies, 8- to 11-week old C57BL/6J mice were anesthetized and subcutaneously injected with […] and […]. Pertussis toxin (200 ng/mouse) was applied intraperitoneally on day 0. Daily clinical evaluation as performed using a 5-point scale and the clinical progression was observed over 28 days (FIGS. 2C and 2D).

Question: What does the source list for `CCC(=O)O` [propionate]?
Answer: % IL-8 (Vehicle + LPS = 100%) ([1]; Conc. 500.0 μM): − (− = >90% Vehicle); % IL-8 (Vehicle + LPS = 100%) ([1]; Conc. 1000.0 μM): ++ (++ = <70% Vehicle); % IL-8 (Vehicle + LPS = 100%) ([1]; Conc. 3000.0 μM): +++ (+++ = <50% Vehicle); % MIP-1α (Vehicle + LPS = 100%) ([2]; Conc. 500.0 μM): +++ (+++ = <50% Vehicle); % MIP-1α (Vehicle + LPS = 100%) ([2]; Conc. 1000.0 μM): +++ (+++ = <50% Vehicle); % MIP-1α (Vehicle + LPS = 100%) ([2]; Conc. 3000.0 μM): +++ (+++ = <50% Vehicle); TNFα % of DMSO control [3]: + ((+) 50% > <90% DMSO); % MIP-1β (DMSO + LPS = 100%) ([4]; Conc. 500.0 μM): +++ (+++ = <50% Vehicle); % MIP-1β (DMSO + LPS = 100%) ([4]; Conc. 1000.0 μM): +++ (+++ = <50% Vehicle); % MIP-1β (DMSO + LPS = 100%) ([4]; Conc. 3000.0 μM): +++ (+++ = <50% Vehicle); IL1β % DMSO control [5]: + ((+) 50% > <90% DMSO); % Change in TEER from DMSO ([6]; 1 mM): + (125% > <150%: +); % Change in TEER from DMSO ([6]; 3 mM): ++ (150% > <200%: ++); IL6 % DMSO control [7]: + ((+) 50% > <90% DMSO); EAE score (5-point scale) compared to control (vehicle only) ([8]; Study 1, 200 mM in drinking water, 28 days): lower EAE scores; TH17 cell (CD3+)/regulatory T cells (CD3+, Foxp3+) ratio ([8]; Study 1, spleen flow cytometry at end of study, 200 mM in drinking water, vs vehicle, P<0.05): significantly reduced
